Source: paper PMC10836395, “Investigation of how gate residues in the main channel affect the catalytic activity of Scytalidium thermophilum catalase” (Acta Crystallographica. Section D, Structural Biology, 2024)
Read-outs that look alike come from different tables or passages of the source. Marks after values point to notes of the source that are not given here.

Key:
CATPO T188A variant [1] = molecular target: T1, CATPO T188A variant (Scytalidium thermophilum (Humicola insolens), UniProt M4GGR5, T207A); assay type: biochemical; details: for K m: pH 7.0 (ABTS pH 5.0), 60°C
T1 sequence (M4GGR5 entry or part of it T207A): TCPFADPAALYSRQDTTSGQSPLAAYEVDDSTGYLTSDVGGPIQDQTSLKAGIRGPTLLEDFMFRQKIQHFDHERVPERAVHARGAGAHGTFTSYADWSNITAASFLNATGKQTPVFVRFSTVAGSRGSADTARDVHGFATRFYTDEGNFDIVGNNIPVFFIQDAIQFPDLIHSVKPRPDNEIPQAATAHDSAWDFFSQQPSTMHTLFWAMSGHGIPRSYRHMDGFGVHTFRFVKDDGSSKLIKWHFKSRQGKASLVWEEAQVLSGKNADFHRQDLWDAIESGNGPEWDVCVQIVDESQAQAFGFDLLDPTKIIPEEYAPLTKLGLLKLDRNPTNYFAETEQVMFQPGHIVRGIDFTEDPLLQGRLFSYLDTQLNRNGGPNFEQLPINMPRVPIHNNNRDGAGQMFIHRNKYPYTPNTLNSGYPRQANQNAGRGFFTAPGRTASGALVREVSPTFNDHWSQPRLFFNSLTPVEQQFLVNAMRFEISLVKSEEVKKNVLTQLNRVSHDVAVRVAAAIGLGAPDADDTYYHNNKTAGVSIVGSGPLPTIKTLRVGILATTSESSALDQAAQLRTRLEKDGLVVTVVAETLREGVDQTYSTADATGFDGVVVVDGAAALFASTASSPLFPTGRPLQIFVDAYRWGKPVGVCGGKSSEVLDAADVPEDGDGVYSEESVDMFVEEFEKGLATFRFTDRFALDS

CATPO T188F variant [2] = molecular target: T2, CATPO T188F variant (Scytalidium thermophilum (Humicola insolens), UniProt M4GGR5, T207F); assay: biochemical
T2 sequence (M4GGR5 entry or part of it T207F): as the sequence (M4GGR5 entry or part of it T207A) above

CATPO T188I variant [3] = molecular target: T3, CATPO T188I variant (Scytalidium thermophilum (Humicola insolens), UniProt M4GGR5, T207I); assay type: biochemical; details: for K m: pH 7.0 (ABTS pH 5.0), 60°C
T3 sequence (M4GGR5 entry or part of it T207I): as the sequence (M4GGR5 entry or part of it T207A) above

CATPO [4] = molecular target: T4, CATPO (Scytalidium thermophilum (Humicola insolens), UniProt M4GGR5); assay: Substrate-specificity analysis of the phenol oxidase activity; assay type: biochemical; details: for K m: pH 7.0 (ABTS pH 5.0), 60°C
T4 sequence (M4GGR5 entry or part of it): as the sequence (M4GGR5 entry or part of it T207A) above

CATPO E484I variant [5] = molecular target: T5, CATPO E484I variant (Scytalidium thermophilum (Humicola insolens), UniProt M4GGR5, E503I); assay type: biochemical; details: for K m: pH 7.0 (ABTS pH 5.0), 60°C
T5 sequence (M4GGR5 entry or part of it E503I): as the sequence (M4GGR5 entry or part of it T207A) above

CATPO T188D variant [6] = molecular target: T6, CATPO T188D variant (Scytalidium thermophilum (Humicola insolens), UniProt M4GGR5, T207D); assay: biochemical
T6 sequence (M4GGR5 entry or part of it T207D): as the sequence (M4GGR5 entry or part of it T207A) above

CATPO E484A variant [7] = molecular target: T7, CATPO E484A variant (Scytalidium thermophilum (Humicola insolens), UniProt M4GGR5, E503A); assay: Substrate-specificity analysis of the phenol oxidase activity; assay type: biochemical; details: for K m: pH 7.0 (ABTS pH 5.0), 60°C
T7 sequence (M4GGR5 entry or part of it E503A): as the sequence (M4GGR5 entry or part of it T207A) above

CATPO E484D variant [8] = molecular target: T8, CATPO E484D variant (Scytalidium thermophilum (Humicola insolens), UniProt M4GGR5, E503D); assay: biochemical
T8 sequence (M4GGR5 entry or part of it E503D): as the sequence (M4GGR5 entry or part of it T207A) above

CATPO E484I variant [9] = molecular target: T5, CATPO E484I variant; assay: biochemical
CATPO E484D variant [10] = molecular target: T8, CATPO E484D variant; assay type: biochemical; details: for K m: pH 7.0 (ABTS pH 5.0), 60°C
CATPO T188A variant [11] = molecular target: T1, CATPO T188A variant; assay: biochemical
CATPO [12] = molecular target: T4, CATPO; assay: Inhibition of catechol oxidation; assay type: biochemical; details: for Ki: catechol oxidation by CATPO, catechol 1 to 100 mM, read-out: K i; for inhibition type: catechol oxidase activity of wild-type CATPO, Lineweaver–Burk
CATPO E484A variant [13] = molecular target: T7, CATPO E484A variant; assay: biochemical
CATPO T188F variant [14] = molecular target: T2, CATPO T188F variant; assay type: biochemical; details: for K m: pH 7.0 (ABTS pH 5.0), 60°C
CATPO T188D variant [15] = molecular target: T6, CATPO T188D variant; assay type: biochemical; details: for K m: pH 7.0 (ABTS pH 5.0), 60°C
CATPO T188I variant [16] = molecular target: T3, CATPO T188I variant; assay: biochemical
[17] = catechol oxidation by T188F, read-out: K i
[18] = catechol oxidation by T188D, read-out: K i
[19] = catechol oxidation by E484D, read-out: K i
[20] = catechol oxidation by E484I, read-out: K i
[21] = catechol oxidation by T188A, read-out: K i
[22] = catechol oxidation by E484A, read-out: K i

SMILES: CCn1c(=NN=c2sc3cc(S(=O)(=O)O)ccc3n2CC)sc2cc(S(=O)(=O)O)ccc21 [ABTS, 2,2′-azino-bis(3-ethylbenzthiazoline-6-sulfonic acid)]
- V max (CATPO T188A variant [1]): 5000 ± 100 mM/min
- k cat/K m (CATPO T188A variant [1]): 90 ± 5 s^−1 M^−1 (×10^2)
- K m (CATPO T188A variant [1]): 52 ± 0.8 mM
- Ki (CATPO T188F variant [2]; [17]): 84 ± 7 mM
- V max (CATPO T188I variant [3]): 6000 ± 100 mM/min
- k cat/K m (CATPO T188I variant [3]): 190 ± 18 s^−1 M^−1 (×10^2)
- K m (CATPO T188I variant [3]): 48 ± 0.7 mM
- V max (CATPO [4]): 5620 ± 250 mM/min
- k cat/K m (CATPO [4]): 590 ± 20 s^−1 M^−1 (×10^2)
- K m (CATPO [4]): 50 ± 1.5 mM
- V max (CATPO E484I variant [5]): 4600 ± 98 mM/min
- k cat/K m (CATPO E484I variant [5]): 170 ± 10 s^−1 M^−1 (×10^2)
- K m (CATPO E484I variant [5]): 50 ± 0.5 mM
- Ki (CATPO T188D variant [6]; [18]): 81 ± 1 mM
- V max (CATPO E484A variant [7]): 8600 ± 220 mM/min
- k cat/K m (CATPO E484A variant [7]): 300 ± 10 s^−1 M^−1 (×10^2)
- K m (CATPO E484A variant [7]): 46 ± 1.0 mM
- Ki (CATPO E484D variant [8]; [19]): 12 ± 1.2 mM
- Ki (CATPO E484I variant [9]; [20]): 81 ± 8 mM
- V max (CATPO E484D variant [10]): 5500 ± 132 mM/min
- k cat/K m (CATPO E484D variant [10]): 100 ± 10 s^−1 M^−1 (×10^2)
- K m (CATPO E484D variant [10]): 53 ± 1.0 mM
- Ki (CATPO T188A variant [11]; [21]): 12 ± 1.2 mM
- Ki (CATPO [12]): 11 ± 1 mM
- Ki (CATPO E484A variant [13]; [22]): 96 ± 5.4 mM
- V max (CATPO T188F variant [14]): 6600 ± 120 mM/min
- k cat/K m (CATPO T188F variant [14]): 270 ± 25 s^−1 M^−1 (×10^2)
- K m (CATPO T188F variant [14]): 45 ± 0.5 mM
- V max (CATPO T188D variant [15]): 4000 ± 88 mM/min
- k cat/K m (CATPO T188D variant [15]): 200 ± 25 s^−1 M^−1 (×10^2)
- K m (CATPO T188D variant [15]): 55 ± 1.0 mM

SMILES: Nc1nc[nH]n1 [3TR, 3-amino-1,2,4-triazole]
- Ki (CATPO T188F variant [2]): 54 ± 4.5 mM
- Ki (CATPO T188D variant [6]): 41 ± 4.1 mM
- Ki (CATPO E484D variant [8]): 22 ± 3.2 mM
- Ki (CATPO E484I variant [9]): 40 ± 4 mM
- Ki (CATPO T188A variant [11]): 20 ± 0.2 mM
- inhibition type (CATPO [12]): competitive
- Ki (CATPO [12]): 21 ± 1 mM
- Ki (CATPO T188I variant [16]): 42 ± 4 mM
- Ki (CATPO E484A variant [13]): 65 ± 5.5 mM

SMILES: [N-]=[N+]=[N-].[Na+] [Sodium azide, sodium azide]
- Ki (CATPO T188F variant [2]; [17]): 62 ± 2.5 mM
- Ki (CATPO T188D variant [6]; [18]): 55 ± 5 mM
- Ki (CATPO E484D variant [8]; [19]): 41 ± 4.1 mM
- Ki (CATPO E484I variant [9]; [20]): 56 ± 1.6 mM
- Ki (CATPO T188A variant [11]; [21]): 42 ± 1.4 mM
- inhibition type (CATPO [12]): competitive
- Ki (CATPO [12]): 42 ± 1.2 mM
- Ki (CATPO T188I variant [16]; catechol oxidation by T188I, read-out: K i): 60 ± 6 mM
- Ki (CATPO E484A variant [13]; [22]): 74 ± 4.8 mM

SMILES: Oc1ccccc1O [Catechol, catechol]
- V max (CATPO T188A variant [1]): 22500 ± 1000 mM/min
- k cat/K m (CATPO T188A variant [1]): 2000 ± 120 s^−1 M^−1 (×10^2)
- K m (CATPO T188A variant [1]): 33 ± 0.5 mM
- V max (CATPO T188I variant [3]): 65000 ± 1100 mM/min
- k cat/K m (CATPO T188I variant [3]): 9200 ± 45 s^−1 M^−1 (×10^2)
- K m (CATPO T188I variant [3]): 31 ± 0.5 mM
- V max (CATPO [4]): 25000 ± 763 mM/min
- k cat/K m (CATPO [4]): 2200 ± 130 s^−1 M^−1 (×10^2)
- K m (CATPO [4]): 33 ± 0.5 mM
- V max (CATPO E484I variant [5]): 50000 ± 1988 mM/min
- k cat/K m (CATPO E484I variant [5]): 8800 ± 72 s^−1 M^−1 (×10^2)
- K m (CATPO E484I variant [5]): 30 ± 1.0 mM
- V max (CATPO E484A variant [7]): 88000 ± 880 mM/min
- k cat/K m (CATPO E484A variant [7]): 14500 ± 130 s^−1 M^−1 (×10^2)
- K m (CATPO E484A variant [7]): 30 ± 1.0 mM
- V max (CATPO E484D variant [10]): 23000 ± 1500 mM/min
- k cat/K m (CATPO E484D variant [10]): 2100 ± 105 s^−1 M^−1 (×10^2)
- K m (CATPO E484D variant [10]): 35 ± 0.5 mM
- V max (CATPO T188F variant [14]): 70000 ± 1290 mM/min
- k cat/K m (CATPO T188F variant [14]): 10200 ± 220 s^−1 M^−1 (×10^2)
- K m (CATPO T188F variant [14]): 30 ± 1.0 mM
- V max (CATPO T188D variant [15]): 40000 ± 4000 mM/min
- k cat/K m (CATPO T188D variant [15]): 8900 ± 70 s^−1 M^−1 (×10^2)
- K m (CATPO T188D variant [15]): 25 ± 1.5 mM
